Marks after values point to notes of the source that are not given here.
What was measured:
CDAA/high-fat fed mice = experiment: Hepatic lipidomic analysis, CDAA/high-fat diet mouse model; assay type: in vivo; details: Compound A 112 mg/kg bw per day or equimolar EPA, orally
Protocol: In Biological Examples 1-7, studies were performed in male C56BL/6J mice (9 weeks old). Mice were fed either choline-sufficient (CS) or choline deficient high-fat diets (31% total calories; “CDAA/high-fat”). The NASH inducing diet was instigated 6 weeks prior to the commencement of treatment in order to design the study as a treatment/reversal set-up rather than prophylaxis.
In Biological Example 7, after 6 weeks of either the CS or CDAA/high-fat diet, mice were administered 112 mg/kg bw per day of Compound A, or an equimolar dose of eicosapentaenoic acid (EPA), delivered orally. Hepatic lipidomic analysis was performed in isolated liver samples from CS (n=9), Compound A (n=9) and EPA (n=8) groups.
To further understand the effects of Compound A on hepatic lipid metabolism, lipidomic analysis of CS- and CDAA/high-fat fed mice (“CD”) was performed in isolated liver tissue.

MMP-13 mRNA = experiment: Hepatic MMP-13 mRNA expression by qPCR, CDAA/high-fat diet mouse model; assay type: in vivo; details: CDAA/high-fat fed mice; Compound A 0.3 mmol/kg bw/day oral; GLP-1a 0.4 mg/kg once weekly i.p.
Protocol: Mice were fed either choline-sufficient (CS) or choline deficient high-fat diets (31% total calories; “CDAA/high-fat”). The NASH inducing diet was instigated 6 weeks prior to the commencement of treatment in order to design the study as a treatment/reversal set-up rather than prophylaxis.
Studies were performed in male C56BL/6J mice (9 weeks old). Mice were divided into 6 experimental groups (n=9 per group) containing either CS or CDAA/high-fat diets, as described above. The NASH inducing CDAA/high fat diet was instigated 6 weeks prior to the commencement of treatment in order to assess treatment/reversal rather than prophylaxis. […] Compound A was administered orally as admix to the high-fat diet whilst GLP-1 agonist was delivered via intraperitoneal injection (i.p.). Fibrosis, inflammation and metabolism related transcripts levels were measured by quantitative real-time polymerase chain reaction (qPCR) in isolated liver tissue.

APOE*3Leiden.CETP mice = experiment: Hepatocellular hypertrophy grading in APOE*3Leiden.CETP double transgenic mice; assay type: in vivo, mouse; details: APOE*3Leiden.CETP mice on high fat/cholesterol diet; 0.3 mmol/kg bw per day by gavage; 20 weeks
From the text: The APOE*3Leiden.CETP double transgenic mouse expresses a variant of the human apolipoprotein E3 (APOE3), the APOE*3Leiden, in addition to the human apolipoprotein C1 (APOC1) and CETP. […] By increasing the cholesterol content of the diet in this model, all the characteristics of human NASH develop.
In one study (using 1% cholesterol w/w), after a 3 weeks run-in period low-responder mice (20% of total) were removed from the study and the remaining mice were sub-divided into 4 groups of 12 mice each (+5 in the control group), matched for plasma cholesterol, triglycerides, blood glucose, body weight and age (t=0) and treatment was started. The mice received a daily gavage between 07hr00 and 10hr00 with either Compound A at 0.3 mmol/kg bw per day, the comparison compound Compound N (0.3 mmol/kg bw per day), rosiglitazone (13 mg/kg bw per day) or control (corn oil). After 20 weeks of treatment mice were sacrificed by CO2 asphyxiation, the liver was collected and the level of hepatocellular hypertrophy was graded.

[1] = Body weight, liver weight and food intake in ob/ob AMLN mice; assay type: in vivo, mouse
Protocol: (§1) Obese diet-induced B6.V-Lepob/Jrj mice (ob/ob) are consistently fibrosis (liver) prone when cholesterol (2%), 40% fat (containing 18% trans-fatty acids) and 20% fructose are added to a high-caloric diet (i.e., AMLN high-fat diet). ob/ob mice on AMLN diet (termed ‘ob/ob AMLN mice’) develop steatohepatitis and fibrosis within a shorter timeframe ([…]) compared with wild-type C57BL/6 mice (AMLN mice) fed the same diet. ob/ob AMLN mice provide an obese diet-induced model of NASH that also allows the study of effects on glycemic control. Development of NASH in the ob/ob AMLN model is confirmed by biopsy.
(§2) In Biological Examples 10-12, 15, and 19, studies were performed in male ob/ob mice (5 weeks old) fed an AMLN high-fat diet for 15 weeks, then randomized into 3 groups (n=10 per group) to receive either 112 mg/kg bw per day of Compound A via diet, 30 mg/kg bw per day pioglitazone via diet or no treatment (vehicle) for a further 4 weeks. An oral glucose tolerance test (OGTT) was performed at week 3. Hepatic fibrosis was assessed via measurements of hepatic fibrogenic/fibrolytic gene expression by RNA sequencing at 4 weeks.
(§3) In Biological Examples 10, 13-14, and 16-18, studies were performed in male ob/ob mice (5 weeks old) fed an AMLN high-fat diet for 18 weeks, then randomized into 6 groups (n=10 per group) to receive either Compound A (at 3 different daily doses, 45 mg/kg, 90 mg/kg or 135 mg/kg) via diet, 30 mg/kg bw per day obeticholic acid (OCA) via diet, or no treatment (vehicle) for a further 8 weeks. Assessment of NASH related parameters and fibrosis was made at study end by quantitative immune histochemistry (IHC) measurements.

inflammatory genes = experiment: Hepatic inflammatory gene expression in ob/ob AMLN mice; assay type: in vivo, mouse; details: 4 weeks, Compound A 112 mg/kg
Protocol: as §1, §2

galectin-3 (Gal-3) = experiment: Hepatic galectin-3 (Gal-3) levels by IHC in ob/ob AMLN mice; assay type: in vivo, mouse; details: 8 weeks, Compound A 45, 90, 135 mg/kg
Protocol: as §1, §3
To assess the effects of 8 weeks treatment with either Compound A (45 mg/kg, 90 mg/kg, or 135 mg/kg) or OCA (30 mg/kg) on hepatic inflammation in ob/ob AMLN mice, IHC was performed to assess galectin-3 (Gal-3) levels.

ob/ob AMLN mice [2] = experiment: Plasma ALT and AST (hepatocellular damage) in ob/ob AMLN mice; assay type: in vivo, mouse; details: 8 weeks
Protocol: as §1, §3
To assess the effects of Compound A and pioglitazone on hepatocellular injury or damage in ob/ob AMLN mice, plasma alanine aminotransferase (ALT) and aspartate transaminase (AST) were measured after 8 weeks of administration.

ob/ob AMLN mice [3] = experiment: Hepatic steatosis and hepatic cholesterol content in ob/ob AMLN mice; assay type: in vivo, mouse; details: 8 weeks, Compound A 45-135 mg/kg, OCA 30 mg/kg
Protocol: as §1, §3

[4] = 8 weeks, Compound A 45, 90 and 135 mg/kg, OCA 30 mg/kg bw per day
[5] = pioglitazone 30 mg/kg, data not shown
[6] = pioglitazone 30 mg/kg, vs vehicle

In the case of `CC/C=C\C/C=C\C/C=C\C/C=C\C/C=C\CCCCOC(CC)C(=O)O` (centres unmarked) [Compound A, 2-((5Z,8Z,11Z,14Z,17Z)-icosa-5,8,11,14,17-pentaenyloxy)butanoic acid], the hepatic cholesteryl ester (CDAA/high-fat fed mice) was “significantly reduced”, the “hepatic diglycerides (DG)” value (CDAA/high-fat fed mice) was “significantly reduced” and the “hepatic free fatty acids (FFA)” value (CDAA/high-fat fed mice) was “significantly reduced”. The “hepatic triglyceride (TG)” value (CDAA/high-fat fed mice) was “significantly reduced”, the “MMP-13 (relative mRNA expression)” value (MMP-13 mRNA) was 1.6*** and the “Decrease in hypertrophy vs. control (%)” value (APOE*3Leiden.CETP mice) was 83* %. The Hepatocellular hypertrophy (APOE*3Leiden.CETP mice) was 8.9 ± 5.9, the body weight ([1]; 4 weeks, Compound A 112 mg/kg) was “no effect” and the body weight [1, 4] was “neither Compound A (45 mg/kg, 90 mg/kg, and 135 mg/kg) nor OCA significantly affected body weight”. For the same compound, the food intake [1, 4] was “not affected”, the MAC-2 expression (inflammatory genes; data not shown) was “Significant reductions” and the MCP-1 transcript levels (inflammatory genes; [5]) was “Neither compound significantly reduced”. For the same compound, the “interleukin (IL)-1β transcript levels” value (inflammatory genes; [5]) was “Neither compound significantly reduced”, the CCR2 expression (inflammatory genes; [6]) was “Significant reductions” and the CD14 expression (inflammatory genes; [6]) was “Significant reductions”. The CD68 expression (inflammatory genes; [6]) was “Significant reductions”, the “transcript levels of TGF-β1” value (inflammatory genes; [6]) was “reduced” and the “transcript levels of TGF-β1 receptor (TGFRβ)” value (inflammatory genes; [6]) was “reduced”. For the same compound, the “Galectin-3 (Gal-3) levels” value (inflammatory genes; vs vehicle) was “significantly reduced”, the “Gal-3 expression level, percentage of area” value (galectin-3 (Gal-3)) was “dose responsive reduction” and the “Gal-3 expression level, total content” value (galectin-3 (Gal-3); OCA 30 mg/kg) was “dose responsive reduction”. The “plasma ALT” value (ob/ob AMLN mice [2]; Compound A 90 mg/kg, p<0.01) was “marked and significant reduction”, the “plasma AST” value (ob/ob AMLN mice [2]; Compound A 90 mg/kg, p<0.05) was “significantly reduced” and the “plasma ALT” value (ob/ob AMLN mice [2]; Compound A 135 mg/kg, p<0.001) was “marked and significant reduction”. The “plasma AST” value (ob/ob AMLN mice [2]; Compound A 135 mg/kg, p<0.01) was “significantly reduced” and the “steatosis (percent area or total lipid content)” value (ob/ob AMLN mice [3]) was “significantly reduced”.

Source: patent publication US12440466B2, “Fatty acid derivatives for treating non-alcoholic steatohepatitis” (BASF AS, priority 2017, dated 2025)
